PubChem BioAssay AID1963836 (Molecular Pharmacology Branch, DTP, NCI, 2024)

Test system: 857933-349-R-J2-PDC complex spheroid viability
Experiment: Anticancer human tumor 857933-349-R-J2-PDC patient-derived colon adenocarcinoma cell line growth inhibition [POLQ]
Details: for IC50: curve of first compound; for viability, T/C: stronger effect = lower value
Method in brief: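 Complex spheroid viability model combining PDC tumour cells with endothelial (HUVEC) and MSC stromal cells. Novobiocin, ART-558 or RP6685 were tested singly and in combination with standard and investigational anticancer drugs. Each was titrated in half-log steps from near clinical Cmax, or from 10 microM where Cmax was unknown.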

[1] = second compound 0.0316 µM, first compound 0.0316 µM
[2] = second compound 0.0316 µM, first compound 0.1 µM
[3] = second compound 0.0316 µM, first compound 0.316 µM
[4] = second compound 0.0316 µM, first compound 1 µM
[5] = second compound 0.0316 µM, first compound 3.16 µM
[6] = second compound 0.0316 µM, first compound 10 µM
[7] = second compound 0.1 µM, first compound 0.0316 µM
[8] = second compound 0.1 µM, first compound 0.1 µM
[9] = second compound 0.1 µM, first compound 0.316 µM
[10] = second compound 0.1 µM, first compound 1 µM
[11] = second compound 0.1 µM, first compound 3.16 µM
[12] = second compound 0.1 µM, first compound 10 µM
[13] = second compound 0.316 µM, first compound 0.0316 µM
[14] = second compound 0.316 µM, first compound 0.1 µM
[15] = second compound 0.316 µM, first compound 0.316 µM
[16] = second compound 0.316 µM, first compound 1 µM
[17] = second compound 0.316 µM, first compound 3.16 µM
[18] = second compound 0.316 µM, first compound 10 µM
[19] = second compound 1 µM, first compound 0.0316 µM
[20] = second compound 1 µM, first compound 0.1 µM
[21] = second compound 1 µM, first compound 0.316 µM
[22] = second compound 1 µM, first compound 1 µM
[23] = second compound 1 µM, first compound 3.16 µM
[24] = second compound 1 µM, first compound 10 µM
[25] = second compound 3.16 µM, first compound 0.0316 µM
[26] = second compound 3.16 µM, first compound 0.1 µM
[27] = second compound 3.16 µM, first compound 0.316 µM
[28] = second compound 3.16 µM, first compound 1 µM
[29] = second compound 3.16 µM, first compound 3.16 µM
[30] = second compound 3.16 µM, first compound 10 µM
[31] = second compound 10 µM, first compound 0.0316 µM
[32] = second compound 10 µM, first compound 0.1 µM
[33] = second compound 10 µM, first compound 0.316 µM
[34] = second compound 10 µM, first compound 1 µM
[35] = second compound 10 µM, first compound 3.16 µM
[36] = second compound 10 µM, first compound 10 µM
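Note: spheroids exposed to compounds for seven days before readout.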

CC1COCCN1c1cc(C2(O)CC3CCC(C2)O3)c2cnn(-c3ccn[nH]3)c2n1 (stereo not drawn) + COC1C(OC(N)=O)C(O)C(Oc2ccc3c(O)c(NC(=O)c4ccc(O)c(CC=C(C)C)c4)c(=O)oc3c2C)OC1(C)C
IC50 (second compound 0.0316 µM): 0.249 µM
IC50 (second compound 0.1 µM): 0.279 µM
IC50 (second compound 0.316 µM): 0.334 µM
IC50 (second compound 1 µM): 0.285 µM
IC50 (second compound 3.16 µM): 0.171 µM
IC50 (second compound 10 µM): 0.339 µM
viability, T/C [1]: 76.3%
viability, T/C [2]: 61.5%
viability, T/C [3]: 48.2%
viability, T/C [4]: 39%
viability, T/C [5]: 40.7%
viability, T/C [6]: 49.7%
viability, T/C [7]: 111%
viability, T/C [8]: 57.7%
viability, T/C [9]: 59.4%
viability, T/C [10]: 37.7%
viability, T/C [11]: 40.2%
viability, T/C [12]: 47%
viability, T/C [13]: 63.3%
viability, T/C [14]: 68.1%
viability, T/C [15]: 50.3%
viability, T/C [16]: 41%
viability, T/C [17]: 43.1%
viability, T/C [18]: 46.7%
viability, T/C [19]: 94.3%
viability, T/C [20]: 58.1%
viability, T/C [21]: 50.4%
viability, T/C [22]: 41.2%
viability, T/C [23]: 49.9%
viability, T/C [24]: 51.4%
viability, T/C [25]: 75.2%
viability, T/C [26]: 54.5%
viability, T/C [27]: 45.5%
viability, T/C [28]: 38.1%
viability, T/C [29]: 43.3%
viability, T/C [30]: 50%
viability, T/C [31]: 71.5%
viability, T/C [32]: 63.6%
viability, T/C [33]: 52.8%
viability, T/C [34]: 36.7%
viability, T/C [35]: 45.6%
viability, T/C [36]: 47.9%

O=C(Nc1ccc(O)c(NS(=O)(=O)c2ccc(F)cc2)c1)c1ccc(-c2ccccc2)cc1 + COC1C(OC(N)=O)C(O)C(Oc2ccc3c(O)c(NC(=O)c4ccc(O)c(CC=C(C)C)c4)c(=O)oc3c2C)OC1(C)C
IC50 (second compound 0.0316 µM): > 10 µM
IC50 (second compound 0.1 µM): > 10 µM
IC50 (second compound 0.316 µM): > 10 µM
IC50 (second compound 1 µM): > 10 µM
IC50 (second compound 3.16 µM): > 10 µM
IC50 (second compound 10 µM): > 10 µM
viability, T/C [1]: 70.1%
viability, T/C [2]: 105%
viability, T/C [3]: 92.3%
viability, T/C [4]: 89.2%
viability, T/C [5]: 80.7%
viability, T/C [6]: 78.6%
viability, T/C [7]: 116%
viability, T/C [8]: 95.9%
viability, T/C [9]: 94.1%
viability, T/C [10]: 92.3%
viability, T/C [11]: 114%
viability, T/C [12]: 101%
viability, T/C [13]: 96%
viability, T/C [14]: 85.5%
viability, T/C [15]: 65.9%
viability, T/C [16]: 65.5%
viability, T/C [17]: 113%
viability, T/C [18]: 84.1%
viability, T/C [19]: 79.5%
viability, T/C [20]: 91.1%
viability, T/C [21]: 81.1%
viability, T/C [22]: 72.9%
viability, T/C [23]: 109%
viability, T/C [24]: 80.7%
viability, T/C [25]: 101%
viability, T/C [26]: 86.9%
viability, T/C [27]: 113%
viability, T/C [28]: 99.2%
viability, T/C [29]: 85.3%
viability, T/C [30]: 61.5%
viability, T/C [31]: 76.2%
viability, T/C [32]: 88.7%
viability, T/C [33]: 99.8%
viability, T/C [34]: 82.8%
viability, T/C [35]: 77.9%
viability, T/C [36]: 68.8%

CC(=O)O[C@H]1C(=O)[C@@]2(C)[C@H]([C@H](OC(=O)c3ccccc3)[C@]3(O)C[C@H](OC(=O)[C@H](O)[C@@H](NC(=O)c4ccccc4)c4ccccc4)C(C)=C1C3(C)C)[C@]1(OC(C)=O)CO[C@@H]1C[C@@H]2O + Cc1cccc(N(C)C(=O)C2C(O)CCN2c2nc(C)cc(C(F)(F)F)c2C#N)c1
IC50 (second compound 0.0316 µM): < 0.00949 µM
IC50 (second compound 0.1 µM): < 0.00949 µM
IC50 (second compound 0.316 µM): < 0.00949 µM
IC50 (second compound 1 µM): < 0.00949 µM
IC50 (second compound 3.16 µM): 0.0107 µM
IC50 (second compound 10 µM): < 0.00949 µM
viability, T/C (second compound 0.0316 µM, first compound 0.00949 µM): 45.4%
viability, T/C (second compound 0.0316 µM, first compound 0.03 µM): 21.2%
viability, T/C (second compound 0.0316 µM, first compound 0.0949 µM): 10.7%
viability, T/C (second compound 0.0316 µM, first compound 0.3 µM): 11.8%
viability, T/C (second compound 0.0316 µM, first compound 0.949 µM): 9.59%
viability, T/C (second compound 0.0316 µM, first compound 3 µM): 14.6%
viability, T/C (second compound 0.1 µM, first compound 0.00949 µM): 40.1%
viability, T/C (second compound 0.1 µM, first compound 0.03 µM): 16.9%
viability, T/C (second compound 0.1 µM, first compound 0.0949 µM): 12.6%
viability, T/C (second compound 0.1 µM, first compound 0.3 µM): 10.6%
viability, T/C (second compound 0.1 µM, first compound 0.949 µM): 14.4%
viability, T/C (second compound 0.1 µM, first compound 3 µM): 13.8%
viability, T/C (second compound 0.316 µM, first compound 0.00949 µM): 40%
viability, T/C (second compound 0.316 µM, first compound 0.03 µM): 19.5%
viability, T/C (second compound 0.316 µM, first compound 0.0949 µM): 10.1%
viability, T/C (second compound 0.316 µM, first compound 0.3 µM): 12%
viability, T/C (second compound 0.316 µM, first compound 0.949 µM): 12.3%
viability, T/C (second compound 0.316 µM, first compound 3 µM): 12.4%
viability, T/C (second compound 1 µM, first compound 0.00949 µM): 47.7%
viability, T/C (second compound 1 µM, first compound 0.03 µM): 20%
viability, T/C (second compound 1 µM, first compound 0.0949 µM): 12.6%
viability, T/C (second compound 1 µM, first compound 0.3 µM): 10.4%
viability, T/C (second compound 1 µM, first compound 0.949 µM): 10.9%
viability, T/C (second compound 1 µM, first compound 3 µM): 13.4%
viability, T/C (second compound 3.16 µM, first compound 0.00949 µM): 54%
viability, T/C (second compound 3.16 µM, first compound 0.03 µM): 15.1%
viability, T/C (second compound 3.16 µM, first compound 0.0949 µM): 10.4%
viability, T/C (second compound 3.16 µM, first compound 0.3 µM): 12.1%
viability, T/C (second compound 3.16 µM, first compound 0.949 µM): 12.1%
viability, T/C (second compound 3.16 µM, first compound 3 µM): 13.5%
viability, T/C (second compound 10 µM, first compound 0.00949 µM): 35.4%
viability, T/C (second compound 10 µM, first compound 0.03 µM): 14.5%
viability, T/C (second compound 10 µM, first compound 0.0949 µM): 13.6%
viability, T/C (second compound 10 µM, first compound 0.3 µM): 11.8%
viability, T/C (second compound 10 µM, first compound 0.949 µM): 13.3%
viability, T/C (second compound 10 µM, first compound 3 µM): 15.4%

O=c1[nH]cc(F)c(=O)[nH]1 + Cc1cccc(N(C)C(=O)C2C(O)CCN2c2nc(C)cc(C(F)(F)F)c2C#N)c1
IC50 (second compound 0.0316 µM): 2.47 µM
IC50 (second compound 0.1 µM): 3.06 µM
IC50 (second compound 0.316 µM): 3.1 µM
IC50 (second compound 1 µM): 3.34 µM
IC50 (second compound 3.16 µM): 2.93 µM
IC50 (second compound 10 µM): 2.1 µM
viability, T/C [1]: 90.7%
viability, T/C [2]: 85.8%
viability, T/C [3]: 95.5%
viability, T/C [4]: 77.8%
viability, T/C [5]: 42.6%
viability, T/C [6]: 29.5%
viability, T/C [7]: 123%
viability, T/C [8]: 109%
viability, T/C [9]: 106%
viability, T/C [10]: 74.9%
viability, T/C [11]: 50%
viability, T/C [12]: 30%
viability, T/C [13]: 102%
viability, T/C [14]: 105%
viability, T/C [15]: 80.3%
viability, T/C [16]: 82%
viability, T/C [17]: 43.9%
viability, T/C [18]: 34.8%
viability, T/C [19]: 94.3%
viability, T/C [20]: 95.3%
viability, T/C [21]: 77.4%
viability, T/C [22]: 85.8%
viability, T/C [23]: 50.7%
viability, T/C [24]: 30.6%
viability, T/C [25]: 93.8%
viability, T/C [26]: 92.6%
viability, T/C [27]: 85.8%
viability, T/C [28]: 69.7%
viability, T/C [29]: 49.1%
viability, T/C [30]: 27.6%
viability, T/C [31]: 90.8%
viability, T/C [32]: 122%
viability, T/C [33]: 99.2%
viability, T/C [34]: 68.9%
viability, T/C [35]: 41.9%
viability, T/C [36]: 29.3%
